What was measured:
HepG2 [1] = assay: Compound evaluated for percent inhibition of cholesterol synthesis from [14C]acetate in HepG2 cell; assay type: functional, Homo sapiens; parameters: concentration or dose not given beside the values
HepG2 [2] = assay: Compound evaluated for percent inhibition of cholesterol synthesis from HMG-CoA Reductase in HepG2 cell; assay type: functional, Homo sapiens
Rattus norvegicus [3] = species: Rattus norvegicus; assay: Compound was evaluated for percent inhibition of cholesterol biosynthesis in primary rat hepatocytes at a concentration of 138 ug/mL (pre-incubated for 45 min); assay type: functional; conditions: Hepatocyte
Rattus norvegicus [4] = species: Rattus norvegicus; assay: Compound was evaluated for percent inhibition of cholesterol biosynthesis in primary rat hepatocytes at a concentration of 2200 ug/mL (pre-incubated for 45 min); assay type: functional; conditions: Hepatocyte
Rattus norvegicus [5] = species: Rattus norvegicus; assay: Inhibitory concentration required to inhibit cholesterol biosynthesis in rat hepatocytes; assay type: functional, Hepatocyte
Rattus norvegicus [6] = species: Rattus norvegicus; assay: Compound was evaluated for percent inhibition of cholesterol biosynthesis in primary rat hepatocytes at a concentration of 1100 ug/mL (pre-incubated for 45 min); assay type: functional; conditions: Hepatocyte
Rattus norvegicus [7] = species: Rattus norvegicus; assay: Compound was evaluated for percent inhibition of cholesterol biosynthesis in primary rat hepatocytes at a concentration of 275 ug/mL (pre-incubated for 45 min); assay type: functional; conditions: Hepatocyte
Rattus norvegicus [8] = species: Rattus norvegicus; assay: Compound was evaluated for percent inhibition of cholesterol biosynthesis in primary rat hepatocytes at a concentration of 550 ug/mL (pre-incubated for 45 min); assay type: functional; conditions: Hepatocyte

SMILES | Inhibition (HepG2 [1]) | Inhibition (HepG2 [2]) | further results
CC(C)=CCC/C=C/CCC1(C)CCc2cc(O)c(C)c(C)c2O1 (configuration not stated) | 38% | – | –
COCCOCOc1cc2c(c(C)c1C)OC(C)(CC/C=C/CCC=C(C)C)CC2 (configuration not stated) | 19% | – | –
Cc1c(O)cc2c(c1C)OC(C)(CCCC(C)CCCC(C)CCCC(C)C)CC2 (configuration not stated) | 3% | 0% | –
CC(C)=CCC/C(C)=C/CC/C(C)=C/CC[C@]1(C)CCc2cc(O)ccc2O1 (mixture of isomers) | – | – | IC50 (Rattus norvegicus [3]): 600 µg/mL; inhibition at 2200 µg/mL (Rattus norvegicus [4]): 70%; Inhibition (Rattus norvegicus [5]): 31%; inhibition at 1100 µg/mL (Rattus norvegicus [6]): 60%; inhibition at 275 µg/mL (Rattus norvegicus [7]): 38%; inhibition at 550 µg/mL (Rattus norvegicus [8]): 45%
CC(C)=CCC/C(C)=C/CC/C(C)=C/CCC1(C)CCc2cc(O)ccc2O1 (racemic) | 63% | 56% | –

— ChEMBL document CHEMBL1125298, “Hypocholesterolemic activity of synthetic and natural tocotrienols” (J Med Chem, 1992)
